Experiments:
[1] = tested on: wild-type strain M. grisea
Cladosporium cucumerinum = assay: melanin biosynthesis inhibition screen, disk diffusion assay on solidified culture; format: cell-based; details: for Observation: effect on growth and pigmentation in words; for Observation: inhibits, radius cleared: growth inhibition zone
Procedure: Potato dextrose medium (PDM) for the screening test is prepared by melting
The mixture is autoclaved as 150 ml aliquots at 121°C for 25 minutes.
A chloramphenicol stock solution is prepared to contain 15 mg chloramphenicol per mL absolute ethanol and is stored at -20°C.
Conidia from Cladosporium cucumerinum, 10^7/mL in 0.03% Tween 20™, retain their viability for at least 12 weeks of storage in 1.8 ml cryovials at -85°C. Inoculum for running the screen are raised once every three months and stored without a cryoprotectant at the working concentration of 10^7 conidia/mL.
Fresh inoculum suspensions are prepared from conidial suspensions stored at -85°C. A cryovial is thawed by hand-heat, and 200 uL spread on the surface of PDA in 9 cm Petri dishes. Plates are placed in a resin box (to prevent fungal escape) and incubated at room temperature, 40 cm below laboratory fluorescent lights. Seven days later conidia are collected. Five mL of 0.03% Tween 20™ is added to each plate, and the conidia are released by rubbing the mycelium with a glass rod. The suspension is passed through a layer of sterile Miracloth™ and the concentration adjusted to 10^7 conidia/mL in 0.03% Tween 20™ using a haemocytometer. Aliquots of 1 mL are dispensed into cryovials and placed in a polystyrene holder to freeze slowly to -85°C.
For the test, 150 mL of PDM is cooled to 35°C, and 0.1 mL of chloramphenicol stock solution is added by gentle swirling. A vial of C. cucumerinum conidial suspension (10^7 conidia/ml in Tween 20™) thawed with hand-heat is mixed into the growth medium using gentle swirling. The mixture is poured immediately into a Biotray, and the agar is allowed to solidify.
Test compounds are applied to 0.63 cm (¼ inch) filter disks. Each test includes a positive control, 200 ng tricyclazole in 20% dimethyl sulphoxide (DMSO). The plate is incubated at room-temperature (∼23°C) 40 cm below laboratory fluorescent lights. The plate is read 40 hours later. […] The Biotrays are autoclaved before disposal.
The compounds are applied as 20 ul droplets from a 1 mg/ml stock solution.

[2] = C. cucumerinum Antibiotic Panel, screen of Example 1
[3] = Antifungal Panel, 20 ul droplets from a 1 mg/ml stock solution on filter disk, read 40 hours later

For `Cc1cccc2sc3nncn3c12` [tricyclazole], the inhibition of penetration ([1]; 15 ng in 1.5% acetone, onion epidermal pieces, 25°C for 24 hours) was 100% and the “penetration of freshly harvested onion epidermis by wild-type M. grisea” value ([1]; in the presence of the inhibitor, about 90 to 95% of germinating wild-type conidia penetrate without it) was “no penetration”.

Monicamycin was tested, and the Observation (Cladosporium cucumerinum; [2]) was “no effect on growth or pigmentation”.

For Neohumidin, the Observation (Cladosporium cucumerinum; [2]) was “no effect on growth or pigmentation”.

With Neomycin Sulfate the Observation (Cladosporium cucumerinum; [2]) was “no effect on growth or pigmentation”.

With Noconazole the “Observation: inhibits, radius cleared” value (Cladosporium cucumerinum; [3]) was “inhibits, 8 mm radius cleared”.

For Protomycin/Streptimidone, the Observation (Cladosporium cucumerinum; [2]) was “no effect on growth or pigmentation”.

In the case of Ristocedin, the Observation (Cladosporium cucumerinum; [2]) is reported as “no effect on growth or pigmentation”.

In the case of Sulfocidin, the “Observation: fungal thinning, radius” value (Cladosporium cucumerinum; [2]) is reported as “fungal thinning, 5 mm radius”.

With Tetrahydro Spiramycin Base the Observation (Cladosporium cucumerinum; [2]) was “no effect on growth or pigmentation”.

With Thioaurin the “Observation: inhibits, radius cleared” value (Cladosporium cucumerinum; [2]) was “inhibits, 16 mm radius cleared”.

For Trichomycin, the Observation (Cladosporium cucumerinum; [2]) was “no effect on growth or pigmentation”.

With Tunicamycin the “Observation: inhibits, radius cleared” value (Cladosporium cucumerinum; [3]) was “inhibits, 22 mm radius cleared”.
